Data: US5028605A, “8-alkylaminoimidazo(1,2-a)pyrazines and derivatives, their preparation and their application in therapy” (l'Universite de Montpellier I, priority 1986, dated 1991)

Experiments:
duodenum = assay: Antispasmodic activity: barium chloride-induced contraction of isolated rat duodenum (Magnus); conditions: for ED50 Theo/ED50 product (antispasmodic activity): barium chloride 10^-4 M, isolated rat duodenum, 37° C., mean of 5 to 6 determinations
Description: Fragments of duodenum are removed from male rats (200 g), fasted for 24 hours and killed by decapitation, and are mounted, after being washed, in a thermostatted (37° C.) isolated organ cell and maintained in survival in Tyrode's solution according to Magnus's classical technique.
The spasmogenic agent used is barium chloride (10^-4 M).
In the first instance, the spasmogenic agent is added to the nutrient bath and, as soon as the contraction of the organ reaches its maximum, the relaxant agent is added to the medium. Working in relation to a fixed concentration of barium chloride with variable concentrations of relaxant, the ED50 of the latter, capable of reducing the induced contraction by 50%, is determined.
The results expressed in Table IV below show the ratio ED50 Theo/ED50 product, established on the basis of the mean of the results of 5 to 6 determinations per product (ED50theophylline=8×10^-4 M).

uterine horns = assay: Uterine relaxant activity: spontaneous contractions of isolated rat uterine horn fragments; conditions: for ED50 Theo/ED50 product (uterine relaxant activity): isolated rat uterine horn, spontaneous contractions, mean of 5 to 10 determinations
Description: Female rats (150-180 g) are killed by decapitation 24 hours after the intraperitoneal administration of stilbestrol (0.1 mg/kg). The uterine horns are removed and fragments mounted in a thermostatted (37° C.) isolated organ cell and maintained in survival in oxygenated De Jalon's solution of composition (mM): NaCl (153.8); KCl (5.6); CaCl2 (2.16); NaHCO3 (1.8); dextrose (5.5). One end of the uterine fragment is maintained fixed, while the other is attached to a recording myograph under a tension of the order of 0.5 g. The spontaneous uterine contractions are recorded on a kymograph. The organ is left at rest for 30 minutes and washed three times. The test products are introduced directly into the bath after being dissolved in De Jalon's solution, and the activity measured (ED50) corresponds to the dose capable of reducing the magnitude of the spontaneous contractions by 50%.
The results expressed in Table V below show the ratio ED50 Theo/ED50 product, established on the basis of the mean of the results of 5 to 10 determinations per product. (ED50 theophylline=0.9×10^-3 M)

[1] = tested on: histamine-induced bronchoconstriction, guinea pigs; assay: Antibronchospastic activity: histamine-induced bronchospasm in anesthetized guinea pigs; format: in vivo, guinea pig; conditions: for ED50 Theo/ED50 product (bronchospasm induced in guinea pigs): intravenous, 30 seconds before histamine, mean of 5 to 8 determinations
Description: Guinea pigs of both sexes weighing between 400 and 600 g are anesthetized with ethyl carbamate ([…] i.p.). After tracheotomy, the animal is placed under artificial respiration at a constant flowrate (Palmer pump 1 m1/100 g×60/min). A take-off at the tracheal cannula enables the volume of air to be gaged at each inhalation by means of a Marey drum. Bronchospasm is induced by intraveneous (jugular) administration of histamine. For each animal, the dose of histamine (8 to 12 μg/kg) inducing an increase in the recording trace equal to double its initial value is determined. The dose adopted should provide three identical responses at intervals of 10 minutes.
The test product is administered intraveneously and then, 30 seconds later, histamine is administered again.

guinea pig trachea = assay: Isolated guinea pig trachea: anti-contractional activity against carbachol; conditions: for EC50 Theo/EC50 product (anti-contractional activity, trachea): carbachol 10^-4 M, isolated guinea pig trachea, mean of 5 to 6 determinations
Description: Guinea pigs of both sexes weighing on average 400 to 600 g are sacrificed, and the tracheas are removed and placed at 37° C. in an oxygenated environment (95% O2 -5% CO2) in Krebs fluid of the following composition (mM): NaCl (116), MgSO4 (1.2), KCl (3.7), CaCl2 (2.6), KH2 PO4 (2.2), NaHCO3 (24.9), glucose (10). The tracheal segments are then mounted horizontally between two hooks, one of which is fixed to the base of the isolated organ cell and the other is attached to a myograph under a tension of 0.5 g. The organ is left at rest for one hour and is subjected to four washes. The contraction-inducing reagent (carbachol) is added at a concentration (10^-4 M) greater than the concentration giving the maximum effect. After stabilization of the contractional effect, gradually increasing accumulative amounts of the test products are added to the cell. The bronchodilatory effect is measured as the percentage inhibition of the maximal contraction and EC50 represents the concentration inhibiting this concentration by 50%.

left atrium = assay: Cardiac activity: inotropic function, isolated electrically stimulated left atrium; set-up: species or system guinea pig; conditions: concentration producing increase in magnitude of 0.5 g
From the text: (§1) Guinea pigs of both sexes weighing between 300 and 500 g are killed by decapitation. The hearts are rapidly removed and placed in an oxygenated environment (95% O2 -5% CO2) in Chenoweth-Koelle's solution of the following composition (mM): NaCl (120), KCl (5.63), CaCl2 (2.0), dextrose (9.7), MgCl2 (2.0), NaHCO3 (26.0). The right and left atria are then separated from the heart and mounted in an isolated organ cell. The right atrium beats spontaneously and the left atrium is electrically stimulated. The organs under a tension of 1 g are left at rest for two hours and washed every fifteen minutes.
(§2) The products are added directly to the nutrient bath. The right atrium is used for measuring the modifications of rate (chronotropic function) whereas the left atrium indicates the modifications brought about in the contractile force (inotropic function).
For the inotropic function, the concentration capable of producing an increase in magnitude of 0.5 g with respect to the basic contraction is measured.

right atrium = assay: Cardiac activity: chronotropic function, isolated spontaneously beating right atrium; set-up: species or system guinea pig; conditions: concentration producing 20% increase in rate
From the text: as §1, §2
For the chronotropic function, the concentration capable of producing a 20% increase in the basic value of the rate is determined.

mice = assay: Motor activity: spontaneous activity in mice (neurosedative effect); format: in vivo, mouse; conditions: male mice, 50 minutes
Description: The measurement of the neurosedative effect is based on the test of activity measurements in mice. […] Five minutes after the administration, the animals are placed in activity-measuring cages, which record their movements digitally by means of the interruption of beams of light. The results are recorded in Table IX and expressed as the percentage variation (increase or decrease ) in activity compared with the controls during a period of 50 minutes following the administration.

| SMILES | EC50 Theo/EC50 product (anti-contractional activity, trachea) (guinea pig trachea) | ED50 Theo/ED50 product (antispasmodic activity) (duodenum) | ED50 Theo/ED50 product (uterine relaxant activity) (uterine horns) | ED50 Theo/ED50 product (bronchospasm induced in guinea pigs) [1] | ED Theo/ED Product, inotropic function (left atrium) | ED Theo/ED Product, chronotropic function (right atrium) | spontaneous activity - % variation compared with the controls, decrease (.dwnarw.) (mice; 55 μmol/kg intraperitoneally) | spontaneous activity - % variation compared with the controls, decrease (.dwnarw.) (mice; 166 μmol/kg intraperitoneally) | spontaneous activity - % variation compared with the controls, increase (.uparw.) (mice; 55 μmol/kg intraperitoneally) | EC50 (duodenum; Rattus norvegicus, reduces barium chloride-induced contraction by 50%, read-out: ED50 theophylline (antispasmodic)) | EC50 (uterine horns; Rattus norvegicus, reduces magnitude of spontaneous contractions by 50%, read-out: ED50 theophylline (uterine relaxant)) | ED50 ([1]; Cavia porcellus, iv, read-out: ED50 Theo (bronchospasm induced in guinea pigs)) | EC50 (guinea pig trachea; Cavia porcellus, 50% inhibition of maximal carbachol contraction, read-out: EC50 Theo (anti-contractional activity, trachea)) | spontaneous activity - % variation compared with the controls, increase (.uparw.) (mice; 166 μmol/kg intraperitoneally) |
| --- | --- | --- | --- | --- | --- | --- | --- | --- | --- | --- | --- | --- | --- | --- |
| CNc1nccn2c(Br)cnc12 [Compound 6, 3-Bromo-8-methylaminoimidazo[1,2-a]pyrazine] | 12.5 | 32 | 9 | 2 | 5 | 6 | 25% | 57% |  |  |  |  |  |  |
| Nc1nc(Br)cn2ccnc12 [Compound 8, 8-amino-6-bromoimidazo[1,2-a]pyrazine] | 11.3 | 32 | 3 | 4 | 10 | 2 | 53% | 83% |  |  |  |  |  |  |
| CCOC(=O)c1cn2ccnc(N)c2n1 [Compound 17, ethyl 8-aminoimidazo[1,2-a]pyrazine-2-carboxylate] |  | 13 | 2.6 | 1.1 | < 1 | < 1 |  | 17% | 28% |  |  |  |  |  |
| Cn1c(=O)c2[nH]cnc2n(C)c1=O [theophylline, reference compound] |  |  |  |  |  |  |  |  | 130% | 800 µM | 900 µM | 43 µmol/kg | 1000 µM | 170% |

More lines, main results first:

| EC50 Theo/EC50 product (anti-contractional activity, trachea) (guinea pig trachea) | SMILES | ED50 Theo/ED50 product (antispasmodic activity) (duodenum) | ED50 Theo/ED50 product (uterine relaxant activity) (uterine horns) | ED50 Theo/ED50 product (bronchospasm induced in guinea pigs) [1] | ED Theo/ED Product, inotropic function (left atrium) | ED Theo/ED Product, chronotropic function (right atrium) | spontaneous activity - % variation compared with the controls, decrease (.dwnarw.) (mice; 55 μmol/kg intraperitoneally) | spontaneous activity - % variation compared with the controls, decrease (.dwnarw.) (mice; 166 μmol/kg intraperitoneally) | spontaneous activity - % variation compared with the controls, increase (.uparw.) (mice; 55 μmol/kg intraperitoneally) | EC50 (duodenum; Rattus norvegicus, reduces barium chloride-induced contraction by 50%, read-out: ED50 theophylline (antispasmodic)) | EC50 (uterine horns; Rattus norvegicus, reduces magnitude of spontaneous contractions by 50%, read-out: ED50 theophylline (uterine relaxant)) | ED50 ([1]; Cavia porcellus, iv, read-out: ED50 Theo (bronchospasm induced in guinea pigs)) | EC50 (guinea pig trachea; Cavia porcellus, 50% inhibition of maximal carbachol contraction, read-out: EC50 Theo (anti-contractional activity, trachea)) | spontaneous activity - % variation compared with the controls, increase (.uparw.) (mice; 166 μmol/kg intraperitoneally) |
| --- | --- | --- | --- | --- | --- | --- | --- | --- | --- | --- | --- | --- | --- | --- |
| 8.3 | CNc1nc(Br)cn2ccnc12 [Compound 9, 6-bromo-8-methylaminoimidazo[1,2-a]pyrazine] | 20 | 5.6 | 5.4 | 50 | 25 | 74% | 83% |  |  |  |  |  |  |
| 5 | CCNc1nc(Br)cn2ccnc12 [Compound 10, 6-bromo-8-ethylaminoimidazo[1,2-a]pyrazine] | 40 | 7.2 | 2 | 4 | 15 | 13% | 73% |  |  |  |  |  |  |
